Counter-ions that a name gives are not always drawn. Like-named read-outs stand apart in the source and are kept apart here.
Tests used:
CHL cells = experiment: Chromosomal aberration test with a Chinese hamster lung cell line (CHL); format: cell-based; conditions: for Chromosomal aberration: CHL cells
Protocol: The chromosomal aberration test was conducted with a Chinese hamster lung cell line (CHL). 2-(2-Furyl)-3-(5-nitro-2-furyl)acrylamide was used as a positive control. Cells treated with the test compounds were cultured for 6 h at 37° C. in 5% CO2 -humidified air. Following the 6 h treatment the cells were washed. Fresh medium was added to the washed cells and they were cultured for a further 18 h. Colcemide was added to the cultures 2 h before the fixation of chromosome preparation, in order to collect metaphase cells.

Male Hartley guinea pigs = format: in vivo; conditions: 10 mg/kg i.v.; for phototoxicity, in words: UVA; for Phototoxicity: number of animals with erythemas/number of animals tested: UVA 90 minutes, 24 h after irradiation
Protocol: Male Hartley guinea pigs were intravenously administered test compounds at a dose of 10 mg/kg, and immediately exposed to UVA on their backs for 90 minutes.

male ICR mice = experiment: Convulsions, intraperitoneal (i.p.) administration with fenbufen; conditions: for Convulsions i.p.: number of animals with convulsions/number of animals tested: 100 mg/kg i.p., fenbufen 100 mg/kg orally
Protocol: Thirty minutes later, they were injected intraperitoneally with the test compounds at a dose of 100 mg/kg. Thereafter, the onset of convulsions was recorded.

Male Wistar rats = experiment: Convulsions, intracerebroventricular (i.c.v.) administration with fenbufen; format: in vivo, rat; conditions: 20 μg i.c.v.
Protocol: Male Wistar rats weighing 180-220 g were anesthetized with sodium pentobarbital (45 mg/kg, i.p.) and fixed in a stereotaxic apparatus. For the intracerebroventricular injection, a 0.6 mm diameter stainless steel guide cannula was implanted in each rat, being positioned 1.5 mm above the left lateral cerebroventricle (A: 6.2, R: 1.0, H: +1.0), according to the atlas of De Groot (1959). The guide cannula was fixed with dental cement on the skull and it was closed with a 0.3 mm diameter stainless steel stylet. To prevent infection, 10,000 units of potassium penicillin G were injected intramuscularly. The rats were allowed a few days to recover from the surgery.
For the measurement of convulsions, 30 min after intraperitoneal injection of 50 mg/kg of fenbufen, 20 μg of the test compounds was given through a 0.3 mm diameter of stainless steel cannula with a polyethylene catheter, which was 1.5 mm longer than the guide cannula in order to be inserted into the […] cerebroventricle (H: +1.0). […] The position of the intracerebroventricular cannula was confirmed by the injection of 10 μl of 1% evans blue followed by sectioning of the brain of each rat which had been used in the experiment.

With `Cl.Nc1c(F)c(N2C[C@@H](N)C3(CC3)C2)cc2c1c(=O)c(C(=O)O)cn2C1CC1` [Reference Compound B, 5-amino-7-((S)-7-amino-5-azaspiro[2.4]hept-5-yl)-1-cyclopropyl-6-fluoro-1,4-dihydro-4-oxoquinoline-3-carboxylic acid hydrochloride] the Chromosomal aberration (CHL cells; Table 1, 3 μg/ml) was “+ (10-20%)”, the Chromosomal aberration (CHL cells; Table 2, 3 μg/ml) was “+ (10-20%)” and the Chromosomal aberration (CHL cells; Table 3, 3 μg/ml) was “+ (10-20%)”. The Chromosomal aberration (CHL cells; Table 7, 3 μg/ml) was “+ (10-20%)”, the “toxicity (chromosomal aberration), in words” value (CHL cells; comparison to Tables 7 and 8) was “observed” and the “death of CHL cells” value (CHL cells; treatment with 100 μg/ml) was “all cells died”. For the same compound, the “phototoxicity, in words” value (Male Hartley guinea pigs) was “observed”, the “Phototoxicity: number of animals with erythemas/number of animals tested” value (Male Hartley guinea pigs) was 3/5 and the “Convulsions i.p.: number of animals with convulsions/number of animals tested” value (male ICR mice) was 0/6.
`N[C@H]1CCN(c2cc3c(cc2F)c(=O)c(C(=O)O)cn3C2CC2)C1` [Reference Compound D, 7-((S)-3-amino-1-pyrrolidinyl)-1-cyclopropyl-6-fluoro-1,4-dihydro-4-oxoquinoline-3-carboxylic acid] was tested, and the Chromosomal aberration (CHL cells; Table 1, 100 μg/ml) was “- (<10%)” and the Chromosomal aberration (CHL cells; Table 2, 100 μg/ml) was “- (<10%)”.
For `Nc1c(F)c(N2CC[C@H](N)C2)cc2c1c(=O)c(C(=O)O)cn2C1CC1` [Reference Compound E, 5-amino-7-((S)-3-amino-1-pyrrolidinyl)-1-cyclopropyl-6-fluoro-1,4-dihydro-4-oxoquinoline-3-carboxylic acid], the “toxicity (chromosomal aberration), in words” value (CHL cells) was “observed”, the “phototoxicity, in words” value (Male Hartley guinea pigs) was “no phototoxicity” and the “death of guinea pigs” value (Male Hartley guinea pigs; phototoxicity test) was “death of two guinea pigs out of five”.
`Cc1c(N2CC[C@H](N)C2)c(F)cc2c(=O)c(C(=O)O)cn(C3CC3)c12` [Reference Compound F, 7-((S)-3-amino-1-pyrrolidinyl)-1-cyclopropyl-6-fluoro-1,4-dihydro-8-methyl-4-oxoquinoline-3-carboxylic acid] was tested, and the “toxicity (chromosomal aberration), in words” value (CHL cells) was “observed”, the “phototoxicity, in words” value (Male Hartley guinea pigs) was “observed” and the “Phototoxicity: number of animals with erythemas/number of animals tested” value (Male Hartley guinea pigs) was 4/5.
With `Cc1c(N2CCNCC2)c(F)c(N)c2c(=O)c(C(=O)O)cn(C3CC3)c12` [Reference Compound I, 5-amino-1-cyclopropyl-6-fluoro-1,4-dihydro-8-methyl-4-oxo-7-piperazinylquinoline-3-carboxylic acid hydrochloride] the “Phototoxicity: number of animals with erythemas/number of animals tested” value (Male Hartley guinea pigs) was 0/5, the “convulsions i.c.v., in words” value (Male Wistar rats; fenbufen) was “observed” and the “Convulsions i.c.v.: number of animals with convulsions/number of animals tested” value (Male Wistar rats; fenbufen 50 mg/kg i.p.) was 3/3. The “Convulsions i.p.: number of animals with convulsions/number of animals tested” value (male ICR mice) was 0/6 and the symptom of sedation (male ICR mice; i.p. convulsion test) was “All of mice used for the test had a symptom of sedation”.

— patent publication US5547962A, “5-amino-8-methyl-7-pyrrolidinylquinoline-3-carboxylic acid derivative” (priority 1993, dated 1996)
